Assay results taken from patent US20170129932A1, “METHOD FOR PREPARING RECOMBINANT GLYCOPROTEIN HAVING HIGH SIALIC ACID CONTENT, THROUGH GLYCOSPHINGOLIPID SYNTHESIS CYCLE CONTROL” (KOREA ADVANCED INSTITUTE OF SCIENCE AND TECHNOLOGY, priority 2014, published 2017).

Assays:
[1] = system: EC2-1H9 cell line; conditions: WGA lectin blotting, EC2-1H9 cells, 1 μM EtDO-P4, FIGS. 1B and 1C
Experimental: Particularly, in order to treat EtDO-P4, the cells (5×10^6) were cultured in 100-mm plates containing MEM-α supplemented with 10% dFBS for 24 hours. The cells were washed twice with serum-free MEM-α. Then, the cells were added with 1 μM EtDO-P4/MEM-α, followed by further culture for 48 hours.

[2] = system: EC2-1H9 cell line; assay: Glycosphingolipid (GSL) extraction and TLC in EC2-1H9 cells; assay type: cell-based, Chinese hamster; conditions: 1 μM EtDO-P4, 48 hours, FIG. 1A
Experimental: Glycosphingolipid (GSL) was sonicated for 30 minutes, followed by extraction using chloroform/methanol (C/M; 2:1, v/v) and isopropanol/hexane/water (IPA/H/W; 55:25:20 v/v/v). The GSL extract was dissolved in 0.1 M NaOH/MeOH, followed by culture for 2 hours at 40 °C. The extract was neutralized with 1 N HCl, to which hexane was added. The mixture stood for 5 minutes. The lower layer was evaporated in the N2 atmosphere, and the remaining part was dissolved in distilled water. The mixture was applied to […] (Varian, Palo Alto, Calif.). After washed with distilled water, total GSL was extracted with C/M, followed by evaporation. The residue dissolved in C/M was spotted on TLC plate (Silica Gel 60 F-254, Merck), followed by development in C/M/0.2% CaCl2 (55:40:10, v/v/v). The plate was then stained with 2% orcinol in 2 M H2SO4 by spraying.

With CCCCCCCCCCCCCCCC(=O)N[C@H](CN1CCCC1)[C@H](O)c1ccc2c(c1)OCCO2 [EtDO-P4, D-threo-1-(3′,4′-ethylenedioxy)-phenyl-2-palmitoylamino-3-pyrrolidino-1-propanol] the “increase of sialic acid content of purified rhEpo” value [1] was “up to 22%” and the “major GSLs, GM1, GM2, and GM3” value [2] was “reduced completely”.
